Measurements from patent US8372834B2, “Compositions and methods for delivery of anti-cancer agents” (University of Wollongong, priority 2007, dated 2013).

How the values were obtained:
[1] = Preliminary stability study of compositions; type: physicochemical; conditions: three weeks, room temperature, protected from light
Description: A preliminary assessment of the stability of the compositions was carried out over a period of three weeks. Test samples were manufactured using the FD2 method described above and stored at room temperature. 5-FU is known to be light sensitive and therefore the samples were protected from exposure to light. The samples were monitored at set time intervals for signs of decomposition using a solution of the equivalent concentration of 5-FU in saline (0.9%) as a control. The methods of monitoring the solutions were physical appearance (solid formation etc.), pH and UV-VIS absorbance spectroscopy (266 nm). The 5-FU solution was warmed and sonicated to dissolve any solid 5-FU that had precipitated before pH and absorbance readings.

[2] = test system: MDA-MB-231; assay: In vitro cytotoxicity, MTS cell proliferation assay; type: cell-based; conditions: Homo sapiens, MDA-MB-231 cells, 72 h, mean IC50 ± SD, at least 3 independent experiments, read-out: IC50 (μM 5-FU)
Description: (§1) After 72 h, cell proliferation was analysed by the MTS assay and normalised to saline control treatments (100% proliferation). ● 5-FU, ▪ 5-FU:FA, ▴ FD45c, ♦ FD50-7Sc, ? FD100HPc. Dashed lines represent the IC50 for each treatment (GraphPad). Values shown are mean±SD (n=4, except for HCT-116 FD50-7Sc and MDA-MB-231 FD100HPc where n=3)
(§2) In vitro cytotoxicity assays were carried out on 5 different carcinoma cell lines (MDA-MB-231, HCT-116, COLO-201, PC-3 and PC-14) using 3 different compositions of the invention (FD45c, FD50-7Sc and FD100HPc). MDA-MB-231 is a breast cancer cell line, HCT-116 and COLO-201 are colon cancer cell lines, PC-3 is a prostate cancer cell line and PC-14 is a non-small cell lung cancer cell line.
(§3) The levels of 5-FU and FA remained constant in each composition. For comparison, assays were also performed using a combination of 5-FU and FA (5-FU:FA), and also 5-FU only. A summary of IC50 values for all cell lines is presented in Table 1 below, and representative dose-response curves used to generate these IC50 values are presented in FIG. 3.

[3] = test system: PC-14; assay: as above; type: cell-based; conditions: PC-14 cells
Description: as §1, §2, §3

[4] = test system: COLO-201; assay: as above; type: cell-based; conditions: COLO-201 cells
Description: as §1, §2, §3

[5] = test system: HCT-116; assay: as above; type: cell-based; conditions: Homo sapiens, HCT-116 cells, 72 h, mean IC50 ± SD, at least 3 independent experiments, read-out: IC50 (μM 5-FU)
Description: as §1, §2, §3

[6] = test system: PC-3; assay: as above; type: cell-based; conditions: Homo sapiens, PC-3 cells, 72 h, mean IC50 ± SD, at least 3 independent experiments, read-out: IC50 (μM 5-FU)
Description: as §1, §2, §3

[7] = Homo sapiens, 72 h, MTS assay, mean IC50 ± SD, at least 3 independent experiments, read-out: IC50 (μM 5-FU)

- change in pH over time [1]: No significant change
- change in A266 over time (UV-VIS absorbance, 266 nm) ([1]; serial dilution): No overall trend of change
Structure (SMILES): O=c1[nH]cc(F)c(=O)[nH]1 [Composition 5-FU, 5-fluorouracil]
- IC50 [2]: 9.1 ± 1.4 µM
- IC50 [3, 7]: 33.4 ± 12.2 µM
- effectiveness compared to 5-FU:FA ([3]; P=0.0084): significantly less effective than 5-FU:FA
- effectiveness compared to 5-FU:FA ([4]; P=0.0084): significantly less effective than 5-FU:FA
- IC50 [4, 7]: 39.3 ± 13.9 µM
- IC50 [5]: 4 ± 1.3 µM
- IC50 [6]: 1.4 ± 0.8 µM
